Reference: patent publication US20260198497A1, “A BENZENE RING-SUBSTITUTED PYRIMIDINECARBOXYLIC ACID COMPOUND, PREPARATION METHOD THEREFOR, HERBICIDAL COMPOSITION AND APPLICATION THEREOF” (QINGDAO KINGAGROOT CHEMICAL COMPOUND CO., LTD., priority 2023, published 2026)

What follows are compounds tested on Veronica (assay: Post-emergence test on weeds). Details: 30 g a.i./ha, 3 weeks after application.
Format: in vivo
Parameters: key: 0 = no effect, 9 = completely dead (levels by growth control rate)
From the text: The criteria for activity levels of plant damage (i.e., growth control rate) are as follows: • Level 9: completely dead; • Level 8: growth control rate is greater than or equal to 90% and less than 100%; • Level 7: growth control rate is greater than or equal to 80% and less than 90%; • Level 6: growth control rate is greater than or equal to 70% and less than 80%; • Level 5: growth control rate is greater than or equal to 50% and less than 70%; • Level 4: growth control rate is greater than or equal to 30% and less than 50%; • Level 3: growth control rate is greater than or equal to 20% and less than 30%; • Level 2: growth control rate is greater than or equal to 10% and less than 20%; • Level 1: growth control rate is less than 10%; • Level 0: no effect.
The above growth control rates are fresh weight control rates.
Monocotyledonous and dicotyledonous weed seeds (Descurainia sophia, Capsella bursa-pastoris, Abutilon theophrasti, Galium spurium, Stellaria media, Lithospermum arvense, Rorippa indica, Alopecurus aequalis, Alopecurus japonicus, Eleusine indica, Beckmannia syzigachne, Sclerochloa dura, Erigeron canadensis, Phleum paniculatum, Veronica, Bromus japonicus, Aegilops tauschii, Phalaris arundinacea, Amaranthus retroflexus, Chenopodium, Commelina communis, Cichorium endivia, Convolvulus arvensis, Cirsium arvense, Solanum nigrum, Acalypha australis, Digitaria sanguinalis, Echinochloa crusgalli, Setaria viridis, Setaria pumila, Leptochloa chinensis, Monochoria vaginalis, Sagittaria trifolia, Schoenoplectiella juncoides, Cyperus rotundus, Cyperus iria, Cyperus difformis, Fimbristylis, Portulaca oleracea, Xanthium sibiricum, Ipomoea nil, Eschenbachia japonica, etc.) and major crop seeds (wheat, maize, paddy rice, soybean, cotton, oilseed rape, millet, sorghum, potato, sesame, castor plant, Chinese cabbage, radish, etc.) were placed in plastic pots filled with soil and then covered with 0.5-2 cm of soil to allow them to grow in a favorable greenhouse environment. Two weeks after sowing, the test plants were treated at the stage of 2-3 leaves. The test compounds of the present invention were individually dissolved with acetone, then added with Tween® 80, with 1.5 L/ha of methyl oleate emulsifiable concentrate as a synergist, diluted into solution of a certain concentration using a certain amount of water, and sprayed to plants using a spray tower. After drug application, the experimental results on weeds were collected after 3 weeks of cultivation in a greenhouse. The compounds were applied at 120, 60, 30, and 15 g a.i./ha in triplicate, and the results were averaged.

SMILES	activity level of plant damage (growth control rate), Veronica
COc1c(N)nc(-c2ccc(C(F)(F)F)c(OC)c2F)nc1C(=O)OCC(OC)OC [Compound 76]	9
CCSC(=O)c1nc(-c2ccc(C(F)(F)F)c(OC)c2)nc(N)c1OC [Compound 156]	9
CCCOC(=O)c1nc(-c2ccc(Br)c(OC)c2F)nc(N)c1OC [Compound 203]	9
COc1c(N)nc(-c2ccc(C(F)(F)F)c(OC)c2F)nc1C(=O)OCC#N [Compound 103]	9
COc1c(N)nc(-c2ccc(C(F)(F)F)c(OC)c2F)nc1C(=O)OCc1ccccc1F [Compound 133]	9
CCSC(=O)c1nc(-c2ccc(Br)c(OC)c2F)nc(N)c1OC [Compound 222]	9
COCCSC(=O)c1nc(-c2ccc(C(F)(F)F)c(OC)c2F)nc(N)c1OC [Compound 190]	9
COc1c(N)nc(-c2ccc(C(F)(F)F)c(OC)c2F)nc1C(=O)OCCBr [Compound 60]	9
CCCOC(=O)c1nc(-c2ccc(C(F)(F)F)c(OC)c2F)nc(N)c1OC [Compound 25]	9
COc1cc(-c2nc(N)c(OC)c(C(=O)OCc3cccnc3)n2)ccc1C(F)(F)F [Compound 151]	9
COC(=O)c1nc(-c2ccc(Br)c(OC)c2F)nc(N)c1OC [Compound 201]	9
CCOC(=O)c1nc(-c2ccc(Br)c(OC)c2F)nc(N)c1OC [Compound 202]	9
COc1c(N)nc(-c2ccc(Br)c(OC)c2F)nc1C(=O)OCC1CCCO1 (stereo not shown) [Compound 218]	9
COc1c(N)nc(-c2ccc(Br)c(OC)c2F)nc1C(=O)OCC#N [Compound 209]	9
COc1c(N)nc(-c2ccc(C(F)(F)F)c(OC)c2F)nc1C(=O)OCC1CC1 [Compound 117]	9
COc1c(N)nc(-c2ccc(C(F)(F)F)c(OC)c2F)nc1C(=O)OC1CCCC1 [Compound 119]	9
COc1c(N)nc(-c2ccc(Br)c(OC)c2F)nc1C(=O)OCC(F)F [Compound 205]	9
COCOC(=O)c1nc(-c2ccc(C(F)(F)F)c(OC)c2F)nc(N)c1OC [Compound 72]	9
C=CCOC(=O)c1nc(-c2ccc(C(F)(F)F)c(OC)c2F)nc(N)c1OC [Compound 52]	9
COc1cc(-c2nc(N)c(OC)c(C(=O)SC)n2)ccc1C(F)(F)F [Compound 155]	9
C#CCOC(=O)c1nc(-c2ccc(C(F)(F)F)c(OC)c2F)nc(N)c1OC [Compound 57]	9
COc1c(N)nc(-c2ccc(Br)c(OC)c2F)nc1C(=O)ON=C(C)C [Compound 210]	9
COc1c(N)nc(-c2ccc(Br)c(OC)c2F)nc1C(=O)OCc1ccccc1 [Compound 219]	9
CCOC(=O)COC(=O)c1nc(-c2ccc(C(F)(F)F)c(OC)c2F)nc(N)c1OC [Compound 81]	9
COc1c(N)nc(-c2ccc(C(F)(F)F)c(OC)c2F)nc1C(=O)OCC(C)F (stereo not shown) [Compound 191]	9
COc1c(N)nc(-c2ccc(C(F)(F)F)c(OC)c2F)nc1C(=O)OCCF [Compound 58]	9

SMILES	activity level of plant damage (growth control rate), Veronica
COc1c(N)nc(-c2ccc(C(F)(F)F)c(OC)c2F)nc1C(=O)OCc1ccccc1 [Compound 130]	9
COc1c(N)nc(-c2ccc(C(F)(F)F)c(OC)c2F)nc1C(=O)[O-].[Na+] [Compound 200]	9
COc1c(N)nc(-c2ccc(C(F)(F)F)c(OC)c2F)nc1C(=O)ON=C(C)C(C)(C)C [Compound 192]	9
COC(=O)C(C)OC(=O)c1nc(-c2ccc(C(F)(F)F)c(OC)c2F)nc(N)c1OC (stereo not shown) [Compound 82]	9
COc1c(N)nc(-c2ccc(C(F)(F)F)c(OC)c2F)nc1C(=O)OCCO [Compound 73]	9
COc1c(N)nc(-c2ccc(C(F)(F)F)c(OC)c2F)nc1C(=O)[O-].[K+] [Compound 199]	9
COc1c(N)nc(-c2ccc(C(F)(F)F)c(OC)c2F)nc1C(=O)OCCSC [Compound 100]	9
COc1c(N)nc(-c2ccc(C(F)(F)F)c(OC)c2F)nc1C(=O)OCCCF [Compound 63]	9
COc1cc(-c2nc(N)c(OC)c(C(=O)OCc3ccncc3)n2)ccc1C(F)(F)F [Compound 152]	9
COc1c(N)nc(-c2ccc(C(F)(F)F)c(OC)c2F)nc1C(=O)O [Compound 1]	9
COc1cc(-c2nc(N)c(OC)c(C(=O)OCc3ccccn3)n2)ccc1C(F)(F)F [Compound 150]	9
CCCOCCOC(=O)c1nc(-c2ccc(C(F)(F)F)c(OC)c2F)nc(N)c1OC [Compound 22]	9
COc1c(N)nc(-c2ccc(C(F)(F)F)c(OC)c2F)nc1C(=O)Oc1ccccc1 [Compound 129]	9
CCOC(=O)OC(C)OC(=O)c1nc(-c2ccc(C(F)(F)F)c(OC)c2F)nc(N)c1OC (stereo not shown) [Compound 93]	9
COCCOCCOC(=O)c1nc(-c2ccc(C(F)(F)F)c(OC)c2F)nc(N)c1OC [Compound 23]	9
COc1c(N)nc(-c2ccc(C(F)(F)F)c(OC)c2F)nc1C(=O)OCCCl [Compound 59]	9
COc1c(N)nc(-c2ccc(C(F)(F)F)c(OC)c2F)nc1C(=O)OCC1CCCO1 (stereo not shown) [Compound 121]	9
COc1c(N)nc(-c2ccc(Br)c(OC)c2F)nc1C(=O)OC(C)C [Compound 204]	9
COC(=O)c1nc(-c2ccc(C(F)(F)F)c(OC(F)F)c2F)nc(N)c1OC [Compound 247]	9
COc1c(N)nc(-c2ccc(Br)c(OC)c2F)nc1C(=O)OCCSC [Compound 214]	9
COc1c(N)nc(-c2ccc(C(F)(F)F)c(OC)c2F)nc1C(=O)OC(C)C [Compound 26]	9
COc1c(N)nc(-c2ccc(C(F)(F)F)c(OC)c2F)nc1C(=O)OCC(F)F [Compound 61]	9
COc1c(N)nc(-c2ccc(C(F)(F)F)c(OC)c2F)nc1C(=O)OCCC(F)(F)F [Compound 64]	9
COc1c(N)nc(-c2ccc(C(F)(F)F)c(OC)c2F)nc1C(=O)OCc1ccn(C)n1 [Compound 193]	9
COCCOC(=O)c1nc(-c2ccc(Br)c(OC)c2F)nc(N)c1OC [Compound 212]	9
CCOCCOC(=O)c1nc(-c2ccc(C(F)(F)F)c(OC)c2F)nc(N)c1OC [Compound 21]	9
